From paper PMC8217170, “Phase Ib dose-escalation study of the hypoxia-modifier Myo-inositol trispyrophosphate in patients with hepatopancreatobiliary tumors” (Nature Communications, 2021)
Where “and” joins values, the source holds several entries; their conditions need not be identical. Equal entries are not always repeated.

Experiment: Plasma levels and pharmacokinetics of intravenous ITPP
[1] = individual patients, cohort 1 (1866 mg/m2)
[2] = individual patients, cohort 2 (3732 mg/m2)

## O=P1(O)OC2C3OP(=O)(O)OP(=O)(O)OC3C3OP(=O)(O)OP(=O)(O)OC3C2OP(=O)(O)O1 (centres unmarked) [ITPP, Myo-inositol trispyrophosphate]
Cohort 2, patient 7, day 2, hour 0, sample 8_2_1
  ITPP plasma levels: Concentration: 0 µg/mL
Cohort 2, patient 7, day 2, hour 9
  ITPP plasma levels, Concentration: 98.6 µg/mL
Cohort 2, patient 7, day 3, hour 0
  ITPP plasma levels, Concentration: 0 µg/mL
Cohort 2, patient 7, day 3, hour 9
  ITPP plasma levels, Concentration: 93.7 µg/mL
Cohort 3, 5600 mg/m2
  AUC: 1168.7 µg·h/mL
  AUMC: 6445.9 h2*mg/L
  CL: 4.4 L/h
  Clast: 59.5 µg/mL
  Cmax: 153.4 µg/mL
  Cmin: 0 ng/mL
  Elimination rate λz: 0.5 h⁻¹
  Half life/T0.5: 1.4 h
  MRT: 1.5 h
  Tlast: 10.0 h
  Tmax: 6.0 h
  VSS: 9.2 L
Cohort 4, 7000 mg/m2
  AUC: 1649.5 µg·h/mL
  AUMC: 9421.8 h2*mg/L
  CL: 3.1 L/h
  Clast: 127.5 µg/mL
  Cmax: 228.0 µg/mL
  Cmin: 0 ng/mL
  Elimination rate λz: 0.2 h⁻¹
  Half life/T0.5: 3.3 h
  MRT: 1.7 h
  Tlast: 10.0 h
  Tmax: 6.0 h
  VSS: 12.8 L
Cohort 5, 8750 mg/m2
  AUC: 1850.5 µg·h/mL
  AUMC: 10396.4 h2*mg/L
  CL: 4.0 L/h
  Clast: 116.8 µg/mL
  Cmax: 257.8 µg/mL
  Cmin: 0 ng/mL
  Elimination rate λz: 0.3 h⁻¹
  Half life/T0.5: 2.1 h
  MRT: 1.6 h
  Tlast: 10.0 h
  Tmax: 6.0 h
  VSS: 11.1 L
Cohort 6, 10500 mg/m2
  AUC: 2439.2 µg·h/mL
  AUMC: 13886.7 h2*mg/L
  CL: 3.3 L/h
  Clast: 186.4 µg/mL
  Cmax: 313.4 µg/mL
  Cmin: 0 ng/mL
  Elimination rate λz: 0.3 h⁻¹
  Half life/T0.5: 2.6 h
  MRT: 1.7 h
  Tlast: 10.0 h
  Tmax: 6.0 h
  VSS: 11.7 L
Cohort 7, 12390 mg/m2
  AUC: 2457.2 µg·h/mL
  AUMC: 14095.2 h2*mg/L
  CL: 4.4 L/h
  Clast: 149.4 µg/mL
  Cmax: 353.6 µg/mL
  Cmin: 0 ng/mL
  Elimination rate λz: 0.4 h⁻¹
  Half life/T0.5: 1.7 h
  MRT: 1.7 h
  Tlast: 10.0 h
  Tmax: 6.0 h
  VSS: 11.4 L
Cohort 8, 14500 mg/m2
  AUC: 2864.1 µg·h/mL
  AUMC: 16280.4 h2*mg/L
  CL: 4.4 L/h
  Clast: 166.0 µg/mL
  Cmax: 439.2 µg/mL
  Cmin: 0 ng/mL
  Elimination rate λz: 0.4 h⁻¹
  Half life/T0.5: 1.8 h
  MRT: 1.7 h
  Tlast: 10.0 h
  Tmax: 6.0 h
  VSS: 11.4 L
[1]
  AUCTmax: 338.2 µg·h/mL and 372.1 µg·h/mL and 311.3 µg·h/mL and 349.1 µg·h/mL
  AUC∞: 366.8 µg·h/mL
  AUC∞ / Dose: 0.2 mg·h/L/mg
  AUMCTmax: 1863.8 h2*mg/L and 2050.4 h2*mg/L and 1825.7 h2*mg/L and 1904.2 h2*mg/L
  AUMC∞: 2201.9 h2*mg/L
  CLO: 5.1 L/h
  Clast: 15.7 µg/mL and 46.6 µg/mL and 22.8 µg/mL and 33.9 µg/mL
  Cmax: 45.8 µg/mL and 54.7 µg/mL and 55.3 µg/mL and 42.2 µg/mL
  Cmax / Dose: 0.0 mg/L/mg
  Cmin: 0 ng/mL
  Elimination rate λz: 0.5 h⁻¹
  Half-life / T0.5: 1.3 h
  MRTTmax: 1.5 h (3×) and 1.9 h
  MRT∞: 2.0 h
  Tlast: 10 h (3×) and 9 h
  Tmax: 6.0 h (3×) and 8.5 h
  VSSO: 10.2 L
  VZO: 9.3 L
[2]
  AUCTmax: 745.9 µg·h/mL and 761.5 µg·h/mL and 1032.3 µg·h/mL
  AUC∞: 826.4 µg·h/mL and 896.6 µg·h/mL and 1215.3 µg·h/mL
  AUC∞ / Dose: 0.2 h*mg/L/mg (2×) and 0.3 h*mg/L/mg
  AUMCTmax: 4278.4 h2*mg/L and 4442.2 h2*mg/L and 6030.7 h2*mg/L
  AUMC∞: 5242.1 h2*mg/L and 6142.5 h2*mg/L and 8341.9 h2*mg/L
  CLO: 4.5 L/h and 4.2 L/h and 3.1 L/h
  Clast: 40.6 µg/mL and 52.1 µg/mL and 69.7 µg/mL
  Cmax: 106.3 µg/mL and 106.7 µg/mL and 148.7 µg/mL
  Cmax / Dose: 0.0 mg/L/mg
  Cmin: 0 ng/mL
  Elimination rate λz: 0.5 /h and 0.4 /h (2×)
  Half-life / T0.5: 1.4 h and 1.8 h (2×)
  MRTTmax: 1.7 h and 1.8 h (2×)
  MRT∞: 2.3 h and 2.9 h (2×)
  Tlast: 10 h
  Tmax: 6.0 h
